ChEMBL document CHEMBL1201862, “PubChem BioAssay data set” (2004)
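Cultured in 96-well plates, cells were exposed to test compound for 48 hours across five concentrations. GI50 = concentration required for 50% inhibition of growth.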 Active and inactive are the calls of the source. No stated cut-off is given here; in the data, active = GI50 up to about 1.1 µM and inactive = higher.

What was measured:
Assay in all cases: DTP human tumour cell line panel, 48 h
[1] = system: A498
[2] = system: PC-3
[3] = system: CCRF-CEM
[4] = system: KM12
[5] = system: OVCAR-5
[6] = system: CAKI-1
[7] = system: TK-10
[8] = system: MDA-N
[9] = system: M14
[10] = system: Malme-3M
[11] = system: SF-295
[12] = system: COLO 205
[13] = system: NCI-H23
[14] = system: SW-620
[15] = system: OVCAR-4
[16] = system: RPMI-8226
[17] = system: UO-31
[18] = system: NCI/ADR-RES
[19] = system: LOX IMVI
[20] = system: UACC-62
[21] = system: SN12C
[22] = system: UACC-257
[23] = system: HCT-15
[24] = system: HCC 2998
[25] = system: NCI-H522
[26] = system: SF-268
[27] = system: SK-MEL-5
[28] = system: K562
[29] = system: SF-539
[30] = system: 786-0
[31] = system: ACHN
[32] = system: MDA-MB-435
[33] = system: MDA-MB-231
[34] = system: MCF7
[35] = system: DU-145
[36] = system: MOLT-4
[37] = system: RXF 393
[38] = system: NCI-H226
[39] = system: HCT-116
[40] = system: U-251
[41] = system: HOP-62
[42] = system: HOP-92
[43] = system: NCI-H460
[44] = system: SK-MEL-2
[45] = system: SK-OV-3
[46] = system: SK-MEL-28
[47] = system: OVCAR-3
[48] = system: SNB-19
[49] = system: A549
[50] = system: EKVX
[51] = system: SNB-75
[52] = system: T47D

Measured: GI50

NC(=O)NC(=O)c1cnccn1
inactive: [1] > 100 µM | [2] > 100 µM | [3] > 100 µM | [4] > 100 µM | [5] > 100 µM | [6] > 100 µM | [7] 12.1 µM | [8] > 100 µM | [9] > 100 µM | [10] > 100 µM | [11] > 100 µM | [12] > 10 µM | [13] > 100 µM | [14] > 100 µM | [15] > 100 µM | [16] > 100 µM | [17] > 100 µM | [18] > 100 µM | [19] > 100 µM | [20] > 100 µM | [21] > 100 µM | [22] > 100 µM | [24] > 100 µM | [25] > 100 µM | [26] > 100 µM | [27] > 10 µM | [28] > 100 µM | [29] > 100 µM | [30] > 100 µM | [31] > 100 µM | [32] > 100 µM | [33] > 100 µM | [34] > 100 µM | [35] > 100 µM | [36] > 100 µM | [37] > 100 µM | [38] 54.1 µM | [39] > 100 µM | [40] > 100 µM | [41] > 100 µM | [42] > 100 µM | [43] > 100 µM | [44] > 100 µM | [45] > 100 µM | [46] > 100 µM | [47] > 100 µM | [48] > 100 µM | [49] > 100 µM | [50] > 100 µM
> 100 µM: [23]

COc1cccc(/C=C/c2ccc(S(N)(=O)=O)cc2)c1
inactive: [2] 22.7 µM | [5] 59.4 µM | [7] 12.5 µM | [8] 17 µM | [51] 17.4 µM | [9] 36.1 µM | [10] 23.2 µM | [11] 6.75 µM | [12] 11.7 µM | [52] 4.94 µM | [17] 18.6 µM | [18] 23.1 µM | [21] 18.2 µM | [22] 16.4 µM | [24] 10.5 µM | [27] 17.1 µM | [30] 17.8 µM | [33] 25.1 µM | [34] 8.07 µM | [35] 26.1 µM | [37] 5.5 µM | [39] 7.36 µM | [41] 24 µM | [43] 10.3 µM | [44] 5.9 µM | [45] 30.4 µM | [46] 44 µM | [47] 5.31 µM | [48] 46.6 µM | [50] 11.8 µM
